From US10414765B2, “Substituted perhydropyrrolo[3,4-c]pyrrole derivatives and the use of same” (BAYER PHARMA AKTIENGESELLSCHAFT, priority 2015, dated 2019) come the findings set out here.

Bounds are passed on as bounds.

Broadly, the IC50 is the concentration needed to halve the response being measured. By inhibition is commonly meant the share of the control response that was lost under treatment. A lower inhibition goes with a weak effect.

Assay type in all cases: cell-based
Assay [1] deals with T1, human TASK-3 (Homo sapiens (Human), UniProt Q9NPC2). The assay can be described thus: Inhibition of recombinant TASK-3 in stably transfected CHO cells (voltage-sensitive dye, 40 mM KCl depolarization). Particulars: 40 mM potassium chloride. As to the method:
(§1) B-2. Inhibition of Recombinant TASK-1 and TASK-3 In Vitro
(§2) The investigations on the inhibition of the recombinant TASK-1 and TASK-3 channels were conducted using stably transfected CHO cells. The compounds according to the invention were tested in this case by application of 40 mM potassium chloride in the presence of a voltage-sensitive dye according to the methods described in detail in the following references [Whiteaker et al., Validation of FLIPR membrane potential dye for high-throughput screening of potassium channel modulators, J. Biomol. Screen. 6 (5), 305-312 (2001); Molecular Devices FLIPR Application Note: Measuring membrane potential using the FLIPR® membrane potential assay kit on Fluorometric Imaging Plate Reader (FLIPR®) systems, http://www.moleculardevices.com/reagents-supplies/assay-kits/ion-channels/flipr-membrane-potential-assay-kits]. The activity of the test substances was determined as their ability to inhibit a depolarization induced in the recombinant cells by 40 mM potassium chloride. The concentration which can block half of this depolarization is referred to as IC50.

Assay [2] deals with T1, human TASK-3. In words: Two-electrode voltage clamp of human TASK-3 channels expressed in Xenopus laevis oocytes. As to the method: (§3) B-1. In Vitro Electrophysiological Analysis of the Human TASK-1 and TASK-3 Channels Via Two-Electrode Voltage Clamp Technique in Xenopus laevis Oocytes
(§4) Xenopus laevis oocytes were selected as described elsewhere by way of illustration [Decher et al., FEBS Lett. 492, 84-89 (2001)]. Subsequently, the oocytes were injected with 0.5-5 ng of a cRNA solution coding for TASK-1 or TASK-3. For the electrophysiological analysis of the channel proteins expressed in the oocytes, the two-electrode voltage clamp technique [Stiihmer, Methods Enzymol. 207, 319-339 (1992)] was used. The measurements were conducted as described [Decher et al., FEBS Lett. 492, 84-89 (2001)] at room temperature (21-22° C.) using a Turbo TEC 10CD amplifier (NPI), recorded at 2 kHz and filtered with 0.4 kHz. Substance administration was performed using a gravitation-driven perfusion system. Here, the oocyte is located in a measuring chamber and exposed to the solution stream of 10 ml/min. The level in the measuring chamber is monitored and regulated by sucking off the solution using a peristaltic pump.

The target of assay [3] is T2, human TASK-1 (Homo sapiens (Human), UniProt O14649). In words: Two-electrode voltage clamp of human TASK-1 channels expressed in Xenopus laevis oocytes. Here is the method: as §3, §4
(In general: Two-electrode voltage clamp holds a large cell at a set potential and records current.)

For assay [4], the target named is T2, human TASK-1. The assay can be described thus: Inhibition of recombinant TASK-1 in stably transfected CHO cells (voltage-sensitive dye, 40 mM KCl depolarization). The note with it: 40 mM potassium chloride. As to the method:
as §1, §2

T1 sequence (Q9NPC2 whole entry): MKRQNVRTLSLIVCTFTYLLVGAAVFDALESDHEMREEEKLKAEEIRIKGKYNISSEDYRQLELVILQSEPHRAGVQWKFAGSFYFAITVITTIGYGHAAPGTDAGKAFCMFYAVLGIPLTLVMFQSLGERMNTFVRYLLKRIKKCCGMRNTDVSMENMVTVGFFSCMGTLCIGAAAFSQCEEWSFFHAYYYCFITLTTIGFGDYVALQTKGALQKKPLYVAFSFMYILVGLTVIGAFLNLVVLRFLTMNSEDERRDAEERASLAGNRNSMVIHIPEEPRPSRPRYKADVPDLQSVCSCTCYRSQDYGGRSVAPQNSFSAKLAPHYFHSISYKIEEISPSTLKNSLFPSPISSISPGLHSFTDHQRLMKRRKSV
T2 sequence (O14649 whole entry): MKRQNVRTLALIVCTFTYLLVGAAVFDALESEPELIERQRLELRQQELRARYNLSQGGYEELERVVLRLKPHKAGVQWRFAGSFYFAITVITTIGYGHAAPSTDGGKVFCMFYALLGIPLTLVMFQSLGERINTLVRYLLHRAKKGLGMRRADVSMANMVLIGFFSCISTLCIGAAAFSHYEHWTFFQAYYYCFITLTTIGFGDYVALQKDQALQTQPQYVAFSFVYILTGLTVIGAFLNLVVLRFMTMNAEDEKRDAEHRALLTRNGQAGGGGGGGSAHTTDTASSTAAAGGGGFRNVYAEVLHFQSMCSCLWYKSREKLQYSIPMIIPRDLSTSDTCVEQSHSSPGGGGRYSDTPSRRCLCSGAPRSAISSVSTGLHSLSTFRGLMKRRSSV

In the case of `COc1cccc(C(=O)N2CC3CN(Cc4c(-c5ccc(Cl)cc5)nc5ccccn45)CC3C2)c1` (stereo not shown) [Example 17], the IC50 in assay [1] was determined as 1900 nM; in assay [2] it was 21.8 ± 2.2 nM; in assay [3] it was 9.3 ± 2.5 nM; in assay [4], 721 nM.
For `O=C(c1ccccc1)N1CC2CN(Cc3c(-c4ccc(Cl)cc4)nc4ccc(-c5ccccc5)cn34)CC2C1` (stereo not shown) [comparative compound, reference compound], the “TASK-3 IC50” value in assay [2] was “inactive”. In addition, the results for the inhibition at 1 µM in assay [2] (1 μM) and in assay [3] (1 μM) were 5.6 ± 1.3% and 11.4 ± 1.5%, respectively. Besides, the inhibition at 10 µM in assay [2] (10 μM) came out at 8.9 ± 0.9%; in assay [3] (10 μM), 37.2 ± 7.5%. The molecule also showed an IC50 in assay [3] greater than 10000 nM.
As for `COc1cccc(C(=O)N2CC3CN(Cc4c(-c5ccc(Br)cc5)nc5ccccn45)CC3C2)c1` (stereo not shown) [Example 10], the IC50 was determined as 485 nM in assay [1], 970 ± 220 nM in assay [2], 31.2 ± 1.7 nM in assay [3] and 206 nM in assay [4].
Turning to `COc1cccc(C(=O)N2CC3CN(Cc4c(-c5ccc(C(C)C)cc5)nc5ccccn45)CC3C2)n1` (stereo not shown) [Example 25], the IC50 turned out to be 410 nM in assay [1], 44.1 ± 5.8 nM in assay [2], 62.2 ± 7.9 nM in assay [3] and 230 nM in assay [4].
The corresponding values for `COc1cccc(C(=O)N2CC3CN(Cc4c(-c5ccc(Cl)cc5)nc5ccccn45)CC3C2)n1` (stereo not shown) [Example 4, [5-{[2-(4-Chlorophenyl)imidazo[1,2-a]pyridin-3-yl]methyl}hexahydropyrrolo[3,4-c]pyrrol-2(1H)-yl](6-methoxypyridin-2-yl)methanone] are 2300 nM, 256 ± 48.8 nM, 59.9 ± 16.2 nM and 947 nM.
